Reference: ChEMBL document CHEMBL1157850, “Synthesis, spectral characterization and bioassay of 3,3'-(1,4-phenylene)-bis[2-alkoxycarbonyl-alkyl)-2-thio-benzoxa-phosphinines]” (Eur J Med Chem, 2010)
In brackets after ≈: the same amount, converted by molar mass. Activity calls are given as the source filed them. The rule behind the calls is not given here.

Key:
Rattus norvegicus [1] = species: Rattus norvegicus; test: Antioxidant activity in Wistar albino rat assessed as catalase level; type: functional
Rattus norvegicus [2] = species: Rattus norvegicus; test: Antioxidant activity in Wistar albino rat assessed as superoxide dismutase level; type: functional
Rattus norvegicus [3] = species: Rattus norvegicus; test: Antioxidant activity in Wistar albino rat assessed as inhibition of catalase activity; type: functional, organism-based
Rattus norvegicus [4] = species: Rattus norvegicus; test: Antioxidant activity in Wistar albino rat assessed as inhibition of superoxide dismutase activity; type: functional, organism-based
Rattus norvegicus [5] = species: Rattus norvegicus; test: Antioxidant activity in Wistar albino rat assessed as inhibition of lipid peroxidation; type: functional, organism-based
Rattus norvegicus [6] = species: Rattus norvegicus; test: Antioxidant activity in Wistar albino rat assessed as reduced glutathione level; type: functional
Rattus norvegicus [7] = species: Rattus norvegicus; test: Antioxidant activity in Wistar albino rat assessed as reduced glutathione activity; type: functional, organism-based
Rattus norvegicus [8] = species: Rattus norvegicus; test: Antioxidant activity in Wistar albino rat assessed as lipid peroxidation level; type: functional, organism-based
[9] = Rattus norvegicus, Wistar albino, read-out: EC50

Row | Molecule | Activity (Rattus norvegicus [1]) [µg/mL] | Activity (Rattus norvegicus [2]) | EC50 (Rattus norvegicus [3]; [9]) [µg/mL] | EC50 (Rattus norvegicus [4]; [9]) [µg/mL] | EC50 (Rattus norvegicus [5]; [9]) [µg/mL] | Activity (Rattus norvegicus [6]) [µg/mL] | EC50 (Rattus norvegicus [7]; [9]) [µg/mL] | Activity (Rattus norvegicus [8]) [µg/mL] | EC50 (Rattus norvegicus [3]) [µg/mL] | EC50 (Rattus norvegicus [4]) [µg/mL] | EC50 (Rattus norvegicus [5]) [µg/mL] | EC50 (Rattus norvegicus [7]) [µg/mL]
1 | COC(=O)C(NP1(=S)Oc2ccccc2CN1c1ccc(N2Cc3ccccc3OP2(=S)NC(C(=O)OC)C(C)C)cc1)C(C)C (centres undefined) | 277.59 | 27.86 µg/mL | 4.89 (≈ 6.96 µM) | 3.45 (≈ 4.91 µM) | 4.1 (≈ 5.83 µM) | 4.73 | 3.05 (≈ 4.34 µM) | 72.3 | – | – | – | –
2 | COC(=O)C(Cc1c[nH]cn1)NP1(=S)Oc2ccccc2CN1c1ccc(N2Cc3ccccc3OP2(=S)NC(Cc2c[nH]cn2)C(=O)OC)cc1 (centres undefined) | 282.28 | 31.55 µg/mL | 1.75 (≈ 2.25 µM) | 1.4 (≈ 1.8 µM) | 1.56 (≈ 2 µM) | 3.66 | 1.45 (≈ 1.86 µM) | 77.2 | – | – | – | –
3 | CCOC(=O)C(C)NP1(=S)Oc2ccccc2CN1c1ccc(N2Cc3ccccc3OP2(=S)NC(C)C(=O)OCC)cc1 (centres undefined) | 270.32 | 28.14 µg/mL | 3.38 (≈ 5.01 µM) | 2.98 (≈ 4.42 µM) | 3.1 (≈ 4.59 µM) | 4.56 | 2.68 (≈ 3.97 µM) | 68.9 | – | – | – | –
4 | CCCC(NP1(=S)Oc2ccccc2CN1c1ccc(N2Cc3ccccc3OP2(=S)NC(CCC)C(=O)OC)cc1)C(=O)OC (centres undefined) | 265.43 | 27.8 µg/mL | 3.98 (≈ 5.66 µM) | 2.31 (≈ 3.29 µM) | 2.91 (≈ 4.14 µM) | 5.02 | 2.66 (≈ 3.78 µM) | 68.2 | – | – | – | –
5 | COC(=O)C(C)NP1(=S)Oc2ccccc2CN1c1ccc(N2Cc3ccccc3OP2(=S)NC(C)C(=O)OC)cc1 (centres undefined) | 271.27 | 27.02 µg/mL | 5.28 (≈ 8.16 µM) | 3.56 (≈ 5.51 µM) | 4.25 (≈ 6.57 µM) | 3.56 | 3.5 (≈ 5.41 µM) | 72.2 | – | – | – | –
6 | CCOC(=O)C(NP1(=S)Oc2ccccc2CN1c1ccc(N2Cc3ccccc3OP2(=S)NC(C(=O)OCC)c2ccccc2)cc1)c1ccccc1 (centres undefined) | 270.32 | 29.31 µg/mL | 2.98 (≈ 3.73 µM) | 2.42 (≈ 3.03 µM) | 2.57 (≈ 3.22 µM) | 4.12 | 2.15 (≈ 2.69 µM) | 70.5 | – | – | – | –
7 | CCCC(NP1(=S)Oc2ccccc2CN1c1ccc(N2Cc3ccccc3OP2(=S)NC(CCC)C(=O)OCC)cc1)C(=O)OCC (centres undefined) | 273.32 | 28.55 µg/mL | 3.23 (≈ 4.42 µM) | 2.33 (≈ 3.19 µM) | 2.59 (≈ 3.54 µM) | 4.23 | 2.5 (≈ 3.42 µM) | 70.2 | – | – | – | –
8 | COC(=O)C(Cc1ccccc1)NP1(=S)Oc2ccccc2CN1c1ccc(N2Cc3ccccc3OP2(=S)NC(Cc2ccccc2)C(=O)OC)cc1 (centres undefined) | 279.43 | 29.42 µg/mL | 2.2 (≈ 2.75 µM) | 1.98 (≈ 2.48 µM) | 2.1 (≈ 2.63 µM) | 4.21 | 2.05 (≈ 2.57 µM) | 72.9 | – | – | – | –
9 | VITAMIN E [listing 1 of 2 here] | 403 | 32.3 µg/mL | – | – | – | 43.6 | – | 82.8 | – | – | – | –
10 | COC(=O)C(Cc1c[nH]c2ccccc12)NP1(=S)Oc2ccccc2CN1c1ccc(N2Cc3ccccc3OP2(=S)NC(Cc2c[nH]c3ccccc23)C(=O)OC)cc1 (centres undefined) | 280.48 | 30.29 µg/mL | 1.98 (≈ 2.26 µM) | 1.39 (≈ 1.59 µM) | 1.82 (≈ 2.08 µM) | 5.84 | 1.45 (≈ 1.65 µM) | 76.2 | – | – | – | –
11 | CCOC(=O)C1c2ccccc2CN1P1(=S)Oc2ccccc2CN1c1ccc(N2Cc3ccccc3OP2(=S)N2Cc3ccccc3C2C(=O)OCC)cc1 (centres undefined) | 285.58 | 30.59 µg/mL | 1.68 (≈ 2.04 µM) | 1.55 (≈ 1.88 µM) | 1.56 (≈ 1.9 µM) | 5.77 | 1.49 (≈ 1.81 µM) | 75.7 | – | – | – | –
12 | O=C1O[C@H]([C@@H](O)CO)C(O)=C1O [ASCORBIC ACID] | 385.46 | inactive | 1.37 (≈ 7.78 µM) | 0.99 (≈ 5.62 µM) | 1.02 (≈ 5.79 µM) | 31.34 | 0.98 (≈ 5.56 µM) | 88.1 | – | – | – | –
13 | VITAMIN E [listing 2 of 2 here] | – | – | – | – | – | – | – | – | 1.48 | 1.03 | 1.22 | 0.99
14 | Oc1ccccc1CNc1ccc(NCc2ccccc2O)cc1 | 262.55 | 26.27 µg/mL | 6.05 (≈ 18.9 µM) | 4.58 (≈ 14.3 µM) | 5.02 (≈ 15.7 µM) | 4.8 | 5.42 (≈ 16.9 µM) | 70.7 | – | – | – | –
